{
  "source": "patent US20240262815A1",
  "about": "“HETEROARYL DERIVATIVE, METHOD FOR PREPARING SAME, AND PHARMACEUTICAL COMPOSITION COMPRISING SAME AS ACTIVE INGREDIENT” (VORONOI INC., priority 2021, published 2024)",
  "data": [
    {"test_system": "SK-BR-3 cancer cells", "assay": "Inhibitory activity against proliferation of SK-BR-3 cancer cells (CellTiter-Glo)", "assay_type": "cell-based", "conditions": "Homo sapiens, SK-BR-3, 120 h, ErbB2-overexpressing SK-BR-3 cells, 120 hours after treatment", "protocol": "To evaluate the inhibitory activity of a compound according to the present invention against the proliferation of ErbB2-overexpressing cancer cells, the following experiment were performed.\n10% FBS-added McCOY'S 5A was used for SK-BR-3 cancer cells. 20% FBS-added RPMI-1640 was used for BT-474 cancer cells. Transduced Ba/F3 cells were cultured in a RPMI-1640 medium to which 1 μg/ml puromycin (Invitrogen) was added.\n48 hours before compound treatment, each type of the SK-BR-3 and BT-474 cells were seeded at 5,000 cells/well in a white clear bottom 96 well plate (Corning). The compound was diluted in dimethyl sulfoxide (SK-BR-3: 3-fold dilution, a total of 12 concentrations, BT-474: […], a total of 12 concentrations) and injected at 1 μl to have the final concentration of 0.2 nM to 5 μM. As for measurement of live cells, 120 hours after treatment with the compound, a CellTiter-Glo luminescent cell-viability reagent (Promega) was used to store the cells at room temperature for 10 minutes, followed by measurement of luminescence using a reader (SynergyNeo, Biotek). Each test was repeated three times.\nThe result values were calculated as a cell growth rate (%) compared to the control group. A graph was plotted using the GraphPad Prism version 8.3.0 program, and GI50 values were calculated.", "units": {"GI50": "nM"}, "values": [
      {"smiles": "C=CC(=O)Nc1cc(Nc2cc(N3OCCC3c3cccc(-c4ccc(C)s4)c3)ncn2)c(OC)cc1N1CCN(C)CC1", "note": "(stereo not shown) [Example 214, N-(4-methoxy-2-(4-methylpiper-azin-1-yl)-5-((6-(3-(3-(5-methyl-thiophen-2-yl)-phenyl)isoxazol-idin-2-yl)pyrim-idin-4-yl)amino)-phenyl)acrylamide]", "GI50": "50 to 500"},
      {"smiles": "C=CC(=O)Nc1cc(Nc2cc(N3OCC[C@@H]3c3cccc(-c4ccccc4)c3)ncn2)c(OC)cc1N1CCN(C(C)=O)CC1", "note": "[Example 215, (R)-N-(5-((6-(3-([1,1′-biphenyl]-3-yl)isoxazolidin-2-yl)pyrimidin-4-yl)-amino)-2-(4-acetyl-piperazin-1-yl)-4-methoxyphenyl)-acrylamide]", "GI50": "< 50"},
      {"smiles": "C=CC(=O)Nc1cc(Nc2cc(N3OCC[C@@H]3c3cc(F)cc(Oc4ccn(C)n4)c3)ncn2)c(OC)cc1N1CCN(C)CC1", "note": "[Example 217, (R)-N-(5-((6-(3-(3-fluoro-5-((1-methyl-1H-pyr-azol-3-yl)oxy)-phenyl)isoxazol-idin-2-yl)pyrim-idin-4-yl)amino)-4-methoxy-2-(4-methylpiperazin-1-yl)phenyl)-acrylamide]", "GI50": "50 to 500"},
      {"smiles": "C=CC(=O)Nc1cc(Nc2cc(N3OCC[C@@H]3c3cc(F)cc(Oc4ccn(C)n4)c3)ncn2)c(OC)cc1N(C)CCN(C)C", "note": "[Example 218, (R)-N-(2-((2-(dimethylamino)-ethyl)(methyl)-amino)-5-((6-(3-(3-fluoro-5-((1-methyl-1H-pyr-azol-3-yl)oxy)-phenyl)isoxazol-idin-2-yl)pyrim-idin-4-yl)amino)-4-methoxyphen-yl)acrylamide]", "GI50": "< 50"},
      {"smiles": "C=CC(=O)Nc1cc(Nc2cc(N3OCC[C@@H]3c3cc(F)cc(Oc4cccc(F)c4)c3)ncn2)c(OC)cc1N1CCN(CC)CC1", "note": "[Example 220, (R)-N-(2-(4-ethyl-piperazin-1-yl)-5-((6-(3-(3-fluoro-5-(3-fluorophenoxy)-phenyl)isoxazol-idin-2-yl)pyrim-idin-4-yl)amino)-4-methoxyphen-yl)acrylamide]", "GI50": "< 50"},
      {"smiles": "C=CC(=O)Nc1cc(Nc2cc(N3OCC[C@@H]3c3cc(F)cc(Oc4cccc(F)c4)c3)ncn2)c(OC)cc1N1CCOCC1", "note": "[Example 222, (R)-N-(5-((6-(3-(3-fluoro-5-(3-fluorophenoxy)-phenyl)isoxazol-idin-2-yl)pyrim-idin-4-yl)amino)-4-methoxy-2-morpholinophen-yl)acrylamide]", "GI50": "< 50"},
      {"smiles": "C=CC(=O)Nc1cc(Nc2cc(N3OCC[C@@H]3c3cccc(Oc4cc(F)cc(F)c4)c3)ncn2)c(OC)cc1N(C)CCN(C)C", "note": "[Example 226, (R)-N-(5-((6-(3-(3-(3,5-difluoro-phenoxy)phenyl)-isoxazolidin-2-yl)-pyrimidin-4-yl)-amino)-2-((2-(dimethylamino)-ethyl)(methyl)-amino)-4-methoxy-phenyl)acrylamide]", "GI50": "< 50"},
      {"smiles": "C=CC(=O)Nc1cc(Nc2cc(N3OCC[C@H]3c3cccc(OCc4cccc(F)c4)c3)ncn2)c(OC)cc1N(C)CCN(C)C", "note": "[Example 229, (S)-N-(2-((2-(dimethylamino)-ethyl)(methyl)-amino)-5-((6-(3-(3-((3-fluorobenz-yl)oxy)phenyl)-isoxazolidin-2-yl)-pyrimidin-4-yl)-amino)-4-methoxy-phenyl)acrylamide]", "GI50": "50 to 500"},
      {"smiles": "C=CC(=O)Nc1cc(Nc2cc(N3OCC[C@@H]3c3cccc(-c4ccccc4)c3)ncn2)c(OC)cc1N1CCN(CCC)CC1", "note": "[Example 230, (R)-N-(5-((6-(3-([1,1′-biphenyl]-3-yl)isoxazolidin-2-yl)pyrimidin-4-yl)-amino)-4-methoxy-2-(4-propylpiper-azin-1-yl)phenyl)-acrylamide]", "GI50": "< 50"},
      {"smiles": "C=CC(=O)Nc1cc(Nc2cc(N3OCCC3c3cccc(-c4cnn(C)c4)c3)ncn2)c(OC)cc1N1CCN(C)CC1", "note": "(stereo not shown) [Example 232, N-(4-methoxy-5-((6-(3-(3-(1-meth-yl-1H-pyrazol-4-yl)phenyl)isoxazol-idin-2-yl)pyrim-idin-4-yl)amino)-2-(4-methylpiper-azin-1-yl)phenyl)-acrylamide]", "GI50": "< 50"},
      {"smiles": "C=CC(=O)Nc1cc(Nc2cc(N3OCCC3c3cccc(-c4cnn(C)c4)c3)ncn2)c(OC)cc1N1CCC(N2CCN(C3CC3)CC2)CC1", "note": "(stereo not shown) [Example 234, N-(2-(4-(4-cyclo-propylpiperazin-1-yl)piperidin-1-yl)-4-methoxy-5-((6-(3-(3-(1-methyl-1H-pyrazol-4-yl)-phenyl)isoxazol-idin-2-yl)pyrim-idin-4-yl)amino)-phenyl)acrylamide]", "GI50": "< 50"},
      {"smiles": "C=CC(=O)Nc1cc(Nc2cc(N3OCCC3c3cccc(-c4cnc5cccnn45)c3)ncn2)c(OC)cc1N(C)CCN(C)C", "note": "(stereo not shown) [Example 235, N-(2-((2-(dimeth-ylamino)ethyl)-(methyl)amino)-5-((6-(3-(3-(imidazo[1,2-b]-pyridazin-3-yl)-phenyl)isoxazol-idin-2-yl)pyrim-idin-4-yl)amino)-4-methoxyphen-yl)acrylamide]", "GI50": "< 50"},
      {"smiles": "C=CC(=O)Nc1cc(Nc2cc(N3OCCC3c3cccc(-c4cccc(C(F)(F)F)c4)c3)ncn2)c(OC)cc1N(C)CCN(C)C", "note": "(stereo not shown) [Example 236, N-(2-((2-(dimeth-ylamino)ethyl)-(methyl)amino)-4-methoxy-5-((6-(3-(3′-(trifluorometh-yl)-[1,1′-biphenyl]-3-yl)isoxazolidin-2-yl)pyrimidin-4-yl)amino)phenyl)-acrylamide]", "GI50": "< 50"},
      {"smiles": "C=CC(=O)Nc1cc(Nc2cc(N3OCCC3c3cccc(-c4cccc(C(F)(F)F)c4)c3)ncn2)c(OC)cc1N1CCN(C)CC1", "note": "(stereo not shown) [Example 237]", "GI50": "50 to 500"},
      {"smiles": "C=CC(=O)Nc1cc(Nc2cc(N3OCCC3c3cccc(-c4nccs4)c3)ncn2)c(OC)cc1N(C)CCN(C)C", "note": "(stereo not shown) [Example 238, N-(2-((2-(dimeth-ylamino)ethyl)-(methyl)amino)-4-methoxy-5-((6-(3-(3-(thiazol-2-yl)-phenyl)isoxazol-idin-2-yl)pyrim-idin-4-yl)amino)-phenyl)acrylamide]", "GI50": "< 50"},
      {"smiles": "C=CC(=O)Nc1cc(Nc2cc(N3OCC[C@@H]3c3cc(F)cc(-c4cccc(N(C)C)c4)c3)ncn2)c(OC)cc1N(C)CCN(C)C", "note": "[Example 239]", "GI50": "< 50"},
      {"smiles": "C=CC(=O)Nc1cc(Nc2cc(N3OCC[C@@H]3c3cc(F)cc(-c4ncnn4C)c3)ncn2)c(OC)cc1N(C)CCN(C)C", "note": "[Example 240, (R)-N-(2-((2-(dimethylamino)-ethyl)(methyl)-amino)-5-((6-(3-(3-fluoro-5-(1-methyl-1H-1,2,4-triazol-5-yl)phen-yl)-isoxazolidin-2-yl)pyrimidin-4-yl)-amino)-4-methoxy-phen-yl)acrylamide]", "GI50": "< 50"},
      {"smiles": "C=CC(=O)Nc1cc(Nc2cc(N3OCC[C@H]3c3cccc(-c4cccc(F)c4)c3)ncn2)c(OC)cc1N1CCN(C)CC1", "note": "[Example 241, (S)-N-(5-((6-(3-(3′-fluoro-[1,1′-biphenyl]-3-yl)-isoxazolidin-2-yl)-pyrimidin-4-yl)-amino)-4-methoxy-2-(4-methylpiper-azin-1-yl)phenyl)-acrylamide]", "GI50": "500 to 5000"},
      {"smiles": "C=CC(=O)Nc1cc(Nc2cc(N3OCC[C@@H]3c3cc(F)cc(-c4cccs4)c3)ncn2)c(OC)cc1N(C)CCN(C)C", "note": "[Example 243, (R)-N-(2-((2-(dimethylamino)-ethyl)(methyl)-amino)-5-((6-(3-(3-fluoro-5-(thio-phen-2-yl)phenyl)-isoxazolidin-2-yl)-pyrimidin-4-yl)-amino)-4-methoxy-phenyl)acrylamide]", "GI50": "< 50"}
    ]}
  ]
}
